The source of these data is patent US9855338B2, “Polyglutamate-amino acid conjugates and methods” (priority 2005, dated 2018).

Read-outs that look alike come from different tables or passages of the source.

How the values of series [1] were obtained:
Each polymer (5 mg) was added into a pH buffer (1 mL) and the mixture was sonificated for 2 minutes. Then the mixture was allowed to settle at room temperature for 30 minutes. Solubility was observed by eye and recorded on the scale of 1 to 10, where 1 is highly insoluble, 5 is a cloudy suspension, and 10 is a highly clear solution.

Series [2] has as its system murine melanoma cells (B16F0) tumor. The experiment in a line: In vivo tumor tissue uptake, syngeneic tumor model, cryostat sections. As to conditions: 24 hours after intravenous administration, nu/nu mice. Here is the method: Animals: Nu/nu mice, female, 6-8 weeks (22-25 g). Solitary tumors were produced by injecting 2×10^5 murine melanoma cells (B16F0) to the right thigh subcutaneously. 5-7 days later when the tumor reached about 500 mm^3, the PGA-97-A-Texas Red or Texas Red dye was injected intravenously to the tumor.
PGA-97-A-Texas Red and Texas Red were separately dissolved in DPBS and were filtrated through a 0.2 μm filter before being administrated to the animals. 100 μl of PGA-97-A-Texas Red (TR loading at 2.5%) or Texas Red at 0.1-10 mM was intravenously injected to the tumor using the syngeneic tumor model in Example 19. Tumors were dissected, embedded under optimal cutting temperature and frozen in liquid nitrogen. Cryostat sections (6-15 μm) were made and were fixed with 4% paraformaldehyde with 0.03M of sucrose on ice for 10-30 min. The sections were washed 2 times with DPBS, stained with Hoechst 33342 (1 μg/ml) for 10 minutes, and washed again with DPBS. The sections were then mounted with a fluorescent mounting medium (DakoCytomation) and covered with a coverslip. The cryostat sections of the tumor were observed under laser scan confocal microscopy.
Photographs of the cryostat cross-section of in vivo tumor tissue uptake of PGA-97-A-Texas Red and Texas Red dye alone were taken. For each, three different cross-sections were taken for a total of six images. […]

In the next series the test system is B16F0 melanoma cells. Description: In vitro cellular uptake, fluorescence microscopy. Type of series: cell-based, murine. Here is the method: B16F0 cells were purchased from ATCC (CRL-6322, ATCC American Type Culture Collection, Rockville, Md.) and were grown in Dulbecco's modified Eagle's medium (DMEM) with 10% fetal bovine serum and 100 units/mL penicillin. The cells were grown at 37° C. in 5% CO2 environment. The culture medium was removed and discarded. The cells were rinsed with Dulbecco Phosphate Buffer Solution (DPBS), Trypsin-ethylenediaminetetra-acetic acid (EDTA) solution (0.5 ml) was added, and the cells were observed under an inverted microscope to make sure that they were dispersed. Complete growth medium (6.0 to 8.0 ml) was added, and the cells were aspirated by gently pipetting. The cell suspension in appropriate aliquots was transferred to new culture plates. […]
PGA-97-A-Texas Red and Texas Red dye (TR) were separately dissolved in DPBS. […] The treated cells were examined under an OLYMPUS fluorescence microscope, and the excitation and emission wavelengths were measured at 591 and 612 nm, respectively.
Three sample containers containing approximately the same number of B16F0 melanoma cells were incubated with PGA-97-A-Texas Red at 1 μM, PGA-97-A-Texas Red at 0.1 μM, and Texas Red alone at 10 μM, respectively, for 24 hours. Photographs of the in vitro cellular uptake of each container were taken with the camera on an Olympus fluorescence microscope system. […]

For the substance “Poly-(γ-glutamyl)-poly-L-glutamine [PGPG-19,800]”, the Solubility in series [1] (pH 2), in series [1] (pH 3), in series [1] (pH 4), in series [1] (pH 5), in series [1] (pH 6) and in series [1] (pH 7) was 10 each time. Further, the Solubility in series [1] (pH 7.4) turned out to be 10.

Consider Texas Red, for which the “accumulation of Texas red dye in tumor cells in vivo” value in series [2] was “not”. Also, the “cellular uptake of Texas red dye” value with B16F0 melanoma cells (0.1 μM to 10 μM, 8-24 hours, fluorescence microscope) is “not”. In the series with B16F0 melanoma cells (10 μM, 24 hours, B16F0 melanoma cells), the “cells that were red (cellular uptake of dye)” value is given as 0%.
